# Experimental data as given in US9889146B2, “Benzoxaborole compounds and uses thereof” (priority 2012, dated 2018).
# Where two headings read alike, the source gives them in different places.
# Key:
# Format in all cases: cell-based
# [1] = test system: Enterobacter aerogenes (AmpC); test: microbe, parasite or virus in culture; conditions: Klebsiella aerogenes
# Proteus mirabilis (WT) = test: microbe, parasite or virus in culture; conditions: Proteus mirabilis (WT)
# Klebsiella spp. (ESBL) = test: microbe, parasite or virus in culture; conditions: Klebsiella
# Proteus vulgaris (WT) = test: microbe, parasite or virus in culture; conditions: Proteus vulgaris (WT)
# [2] = test system: Enterobacter cloacae (WT); test: microbe, parasite or virus in culture
# [3] = test system: E. coli ATCC 25922 wild type and mutants; test: MIC, wild type and GSK2251052 resistant mutants; conditions: Escherichia coli
# Method in brief: (§1)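 MICs were determined following CLSI M7-A7 recommendations for aerobic bacteria. Strains were E. coli ATCC 25922, K. pneumoniae ATCC 13883, P. aeruginosa ATCC 27853 and six to ten laboratory-selected GSK2251052-resistant colonies of each, carrying mutations in the LeuRS editing domain.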
# [4] = test system: K. pneumoniae ATCC 13883 wild type and mutants; test: MIC, wild type and GSK2251052 resistant mutants; conditions: Klebsiella pneumoniae
# Method in brief: as §1
# [5] = test system: P. aeruginosa ATCC 27853 wild type and mutants; test: MIC, wild type and GSK2251052 resistant mutants; conditions: Pseudomonas aeruginosa
# Method in brief: as §1
# [6] = test system: clinical isolates from the four subjects (E. coli, P. mirabilis, K. pneumoniae); test: Resistance in clinical isolates of the phase II clinical trial
# Method: A comparative, dose-ranging study of GSK2251052 vs. imipenem-cilastatin in complicated lower urinary tract infection and pyelonephritis was undertaken with 210 targeted patients (20 actually enrolled) in a phase II clinical trial. The study was designed to determine the appropriate and safe dose for Phase III trials. Doses were 750 mg or 1500 mg twice a day, compared to an active comparator, with an independent safety review committee.
# The phase II clinical trial identified four subjects who developed spontaneous resistance to GSK2251052 as evidenced by increased MICs (>32-fold) determined for the clinical isolates from the four subjects. Two of the resistant mutant strains identified were E. coli strains, one was a P. mirabilis strain, and one was a K. pneumoniae strain.
# E. coli (WT) = test: microbe, parasite or virus in culture; conditions: Escherichia coli, E. coli (WT)
# [7] = read-out: susceptibility category of MIC90
# [8] = GSK2251052 breakpoint, read-out: susceptibility category of MIC90
compound,measurement,setting,value
"NC[C@H]1OB(O)c2c(OCCCO)cccc21 [GSK2251052, (S)-3-aminomethyl-7-(3-hydroxy-propoxy)-3h-benzo[c][1,2]oxaborol-1-ol]",MIC90,[1],1 µg/mL
same,MIC90,[1]; [7],< 4 µg/mL
same,MIC90,"Proteus mirabilis (WT); 235 isolates, read-out: MIC90",1 µg/mL
same,susceptibility category of MIC90,Proteus mirabilis (WT); [8],< 4 µg/mL
same,MIC90,Klebsiella spp. (ESBL),1 µg/mL
same,MIC90,Klebsiella spp. (ESBL); [7],< 4 µg/mL
same,MIC90,"Proteus vulgaris (WT); 41 isolates, read-out: MIC90",1 µg/mL
same,susceptibility category of MIC90,Proteus vulgaris (WT); [8],< 4 µg/mL
same,MIC90,"[2]; 202 isolates, read-out: MIC90",1 µg/mL
same,susceptibility category of MIC90,[2]; [8],< 4 µg/mL
same,MIC,"[3]; ATCC25922, E wt, leuRS mutation none, read-out: MIC",1 µg/mL
same,MIC,"[3]; ATCC25922, E. coli WT, read-out: GSK2251052 MIC",1 µg/mL
same,MIC,"[3]; ATCC25922, mutant E101, leuRS Y246H",64 µg/mL
same,MIC,"[3]; ATCC25922, mutant E102, leuRS D345G",256 µg/mL
same,MIC,"[3]; ATCC25922, mutant E103, leuRS D345G (ditto mark)",256 µg/mL
same,MIC,"[3]; ATCC25922, mutant E104, leuRS Y246H",64 µg/mL
same,MIC,"[3]; ATCC25922, mutant E105, leuRS D345G",256 µg/mL
same,MIC,"[3]; ATCC25922, mutant E106, leuRS D345G",256 µg/mL
same,MIC,"[3]; ATCC25922, mutant E107, leuRS G229S",> 256 µg/mL
same,MIC,"[3]; ATCC25922, mutant E108, leuRS D345G",256 µg/mL
same,MIC,"[3]; ATCC25922, mutant E109, leuRS D345G (ditto mark)",256 µg/mL
same,MIC,"[3]; ATCC25922, mutant E110, leuRS Duplication D345 Y346",> 256 µg/mL
same,MIC,"[4]; ATCC13883, K wt, leuRS mutation none, read-out: MIC",1 µg/mL
same,MIC,"[4]; ATCC13883, K. pneumoniae WT, read-out: GSK2251052 MIC",1 µg/mL
same,MIC,"[4]; ATCC13883, mutant K104, leuRS D345Y",> 256 µg/mL
same,MIC,"[4]; ATCC13883, mutant K105, leuRS G229R",> 256 µg/mL
same,MIC,"[4]; ATCC13883, mutant K107, leuRS S227F",256 µg/mL
same,MIC,"[4]; ATCC13883, mutant K108, leuRS T248P",> 256 µg/mL
same,MIC,"[4]; ATCC13883, mutant K109, leuRS T248P (ditto mark)",> 256 µg/mL
same,MIC,"[4]; ATCC13883, mutant K110, leuRS V338L",256 µg/mL
same,MIC,"[5]; ATCC27853, P wt, leuRS mutation none, read-out: MIC",4 µg/mL
same,MIC,"[5]; ATCC27853, P. aeruginosa WT, read-out: GSK2251052 MIC",4 µg/mL
same,MIC,"[5]; ATCC27853, mutant P101, leuRS T256P",128 µg/mL
same,MIC,"[5]; ATCC27853, mutant P102, leuRS T256P (ditto mark)",32 µg/mL
same,MIC,"[5]; ATCC27853, mutant P103, leuRS T256P (ditto mark)",64 µg/mL
same,MIC,"[5]; ATCC27853, mutant P104, leuRS T256P (ditto mark)",128 µg/mL
same,MIC,"[5]; ATCC27853, mutant P105, leuRS T256P (ditto mark)",128 µg/mL
same,MIC,"[5]; ATCC27853, mutant P106, leuRS V342M",> 256 µg/mL
same,MIC,"[5]; ATCC27853, mutant P107, leuRS V342M (ditto mark)",128 µg/mL
same,MIC,"[5]; ATCC27853, mutant P108, leuRS T252P",128 µg/mL
same,MIC,"[5]; ATCC27853, mutant P109, leuRS V342M",128 µg/mL
same,MIC,"[5]; ATCC27853, mutant P110, leuRS V342M (ditto mark)",> 256 µg/mL
same,rates of spontaneous resistance,[6]; baseline isolates tested,~10^−7
same,increase of MICs in clinical isolates,"[6]; four subjects who developed spontaneous resistance, phase II trial",> 32 fold
same,MIC90,"E. coli (WT); 214 isolates, read-out: MIC90",1 µg/mL
same,MIC90,E. coli (WT); [8],< 4 µg/mL
